The values below come from patent US20240139125A1 (INDUSTRIAL COOPERATION FOUNDATION JEONBUK NATIONAL …, priority 2020, published 2024).

The test system of one data set is SARS-CoV2 virus. Nature of the data set: MTT cell viability of Vero E6 cells infected with SARS-CoV2. Type of data set: cell-based. The note with it: Vero E6, SARS-CoV2 0.1 MOI, 500 nM, 24 hours after treatment; control DMSO-S 66.52±2.28%; 0.5 µM. The method, then:
Vero E6 cells, monkey kidney cell masters, were dispensed at 1×10^4 cells/well per well in 96 well plates and incubated at 37° C., 5% CO2 incubators for 24 hours. SARS-CoV2 to infect Vero E6 cells was S ARS-CoV 43326 distributed from the National Pathogen Resource Bank, and DMEM (2% FBS, 1% antibiotic-antimycotic) medium was dispensed at 100 μL/well to infect 0.1 MOI. For 1 hour The virus was removed after 1 hour of infection in a 37° C., 5% CO2 incubator.
Next, samples prepared so that BIA or analogue compounds were finally 500 nM were dispensed 100 μL/well, including the culture medium, and then treated in a 37° C., 5% CO2 incubator for 24 hours. In the same way, the group treated with 2 μM, 5 μM, or 10 μM of Remdesivir (Rem) was a positive control.
Check the condition of the cells, add 100 μL/well of 0.5 mg/ml MTT solution, react in a 37° C., 5% CO2 incubator for 4 hours, wash out the media, and DMSO to the cells by 100 μL/well After sufficient dissolution, absorbance was measured at 540 nm with a plate reader to evaluate cell viability.
To confirm the possibility of viral prevention and therapeutic effects of BIA and its analogue compounds, 500 nM treatment of BIA analogue at the same time as viral infection, and then MTT assay whether the viability of cells against viral infection is improved after 24 hours. The results confirmed are shown in the graph of FIG. 82.

Data set [1] concerns human breast cancer cells labeled with DiI dye. Briefly: Zebrafish tumor model. Type of data set: in vivo. The note with it: 2 uM BIA, third day after transplantation.
The test system of the next data set is PANC-1 cells. Nature of the data set: Cell viability (crystal violet), BIA versus mTOR inhibitors. Type of data set: cell-based. The note with it: 10 μM.
The next data set concerns MDA-MB-231. Nature of the data set: Cell proliferation/viability with BIA, IC50 after 3 days. The note with it: Homo sapiens, 72 h; MDA-MB-231 cells, treatment for 3 days. Type of data set: cell-based.
Data set [2] deals with tumors derived from MDA-MB-231 cells. Nature of the data set: Xenograft in nude mice. Type of data set: in vivo. Particulars: MDA-MB-231 xenograft, 1 mg/kg BIA, 5 days a week, 25 days. How it is done: FIG. 67C and FIG. 67D show the volume and weight of tumors derived from MDA-MB-231 cells injected into a nude mouse treated with a vehicle or 1 mg/kg BIA. (n=5 mice for each group). Data were expressed as mean±SD. ***p<0.001, ****p<0.0001, followed by binary ANOVA, followed by Bonferroni's post hoc test (C) or two-tailed unpaired t-test (B).
(§1) Mice purchased 20-25 g of BALBc/Nude and conducted experiments after 1 week of preliminary breeding to adapt to the laboratory environment. This experiment was approved by the Animal Experiment Ethics Committee of Chonbuk National University (CBNU 201 5-064, CBNU 2016-56) and was carried out according to standard work instructions, and the conditions in the breeding room were kept constant temperature and relative humidity, a 12-hour contrast cycle, and water and feed were freely consumed. Experimental animals are transplanted subcutaneously with 5×10^6 cells per mouse using HT1080 cell line and MDA-MB-231 cell line, and after 7-10 days, mice forming tumor sizes of 100 mm^3 are randomly divided into control and experimental groups. The control group is injected with saline (including 10% DMSO) and the experimental group is injected with 1 mg/kg (10% DMSO) into the abdomen. The drug is given 5 days a week, and repeated for 4 weeks. […] The tumor size was measured with a caliper and calculated using the following formula: […]

Data set [3] has as its system tumors derived from HT1080 cells. Nature of the data set: Xenograft in nude mice. Type of data set: in vivo. Particulars: 1 mg/kg BIA, 5 days a week, 25 days. How it is done: as §1, with “groups.” for “groups. The control group is injected with saline (including 10% DMSO) and the experimental group is injected with 1 mg/kg (10% DMSO) into the abdomen. The drug is given 5 days a week, and repeated for 4 weeks.”
In culture, exponentially growing BI-1 (TMBIM6) knockout and WT HT1080 cells were treated with trypsin and quantified through trypan blue staining differentiation, and 3-5×10^6 cells were resuspended in 0.1 ml PBS. […]
After 25-28 days, the mice were euthanized, solid tumors were incised, and tumor volumes were recorded. Tumor size was measured with a caliper. The tumor volume (mm^3) was calculated by the formula [(shortest diameter)2×longest diameter]/2. […]

For data set [4], the system named is HT1080, MCF7, MDA-MB-231 and SKBR3 cell lines. Briefly: Cell proliferation and viability of cell line panel with BIA. The note with it: 5 μM BIA. Type of data set: cell-based.
Data set [5] deals with association between RICTOR and mTOR or between RICTOR and RPL19. Briefly: Proximity ligation assay in PANC-1 cells. The data set is classed as cell-based. The note with it: PLA. An excerpt: The graph on the right quantifies the fine, bright points (n=5 independent experiment). The scale bar represents 20 μm. Data were expressed as mean±SD. **p<0.01, Bonferroni's post hoc test after binary ANOVA.

Data set [6] deals with BI-1 (TMBIM6) knockout HT1080 cells. Nature of the data set: Cell proliferation of knockout cells with BIA (off-target check). Type of data set: cell-based. The method, then: BI-1 (TMBIM6) WT HT1080 cells, BI-1 (TMBIM6) knockout HT1080 , human breast cancer cell lines MCF7, MDA-MB-231 and SKBR3 were treated with BIA 0.5, 1.0, 2.0, 5.0, 10.0 μM and cell proliferation was confirmed. Cells with proliferation of all cell lines by 5 μM BIA treatment It was confirmed that viability was inhibited (see FIG. 57).
Cell proliferation in BI-1 (TMBIM6) knockout HT1080 cells was investigated to determine if the antiproliferative effect by BIA at this dose was an off-target effect. The cell proliferation rate and AKT phosphorylation of BI-1 (TMBIM6) knockout HT1080 cells were the same with or without BIA except for high concentrations of “20 and 30 μM” (see FIG. 57).
Cell proliferation was investigated in BI-1 (TMBIM6) knockout HT1080 cells to determine if the antiproliferative effect by BIA at the dose was a non-targeted effect. The cell proliferation rate and AKT phosphorylation of BI-1 (TMBIM6) knockout HT1080 cells were the same in the treated and untreated groups of BIA except for high concentrations of “20 and 30 μM” (see FIGS. 63A and 63B).

The cell viability is the share of living cells, or the viability signal relative to a control. Usually IC50 stands for the concentration that gives 50% inhibition. A low value points to greater potency.

The structures appear in SMILES notation. “Also recorded” adds a separate entry of the source.

In the data set on SARS-CoV2 virus, `Nc1ccccc1C(=O)/C=C/c1cccc([N+](=O)[O-])c1` [BIA, 2E-1-2-Aminophenyl-3-3-nitrophenyl-2-propen-1-one] had a cell viability of 77.94±5.51%. Further, the “movement of tumor cells away from the primary site” value in data set [1] is “remained at the injection site”. For the same compound, the live cells entry in the data set on PANC-1 cells is “almost removed live cells”. In the data set on MDA-MB-231, this compound came in with an IC50 of 2600 ± 500 nM. For the same compound, the tumor growth entry in [2] and in [3] was “significantly impaired” throughout. Besides, the “proliferation and cell viability of all cell lines” value in data set [4] is listed as “inhibited; also recorded: suppressed”. The “association between RICTOR and mTOR or between RICTOR and RPL19” value in data set [5] is “reduced”. Further, the dose-dependent cell survival result in data set [6] (BI-1 (TMBIM6) knockout cells) is listed as “did not show a decrease”. In addition, the “cell proliferation rate and AKT phosphorylation with or without BIA” value in data set [6] (BI-1 knockout HT1080, except for high concentrations of 20 and 30 μM) is listed as “the same”.
